Laboratory results from ChEMBL document CHEMBL1134376, “Structure-activity relationship studies of 4-[2-(diphenylmethoxy)ethyl]-1-benzylpiperidine derivatives and their N-analogues: evaluation of O-and N-analogues and their binding to monoamine transporters” (J Med Chem, 2001).

What was measured:
Rattus norvegicus = species on record: Rattus norvegicus; experiment: Inhibition of dopamine reuptake ([3H]DA uptake) in […]; format: functional
[1] = molecular target: Sodium-dependent dopamine transporter (Rattus norvegicus) (UniProt P23977); experiment: Ratio of ([3H]-DA uptake) / [3H]WIN-35428 binding was determined in […]
[2] = molecular target: Norepinephrine transporter (Rattus norvegicus, UniProt Q9WTR4); experiment: Affinity at norepinephrine transporter (NET) in rat striatum, using [3H]- nisoxatine as radioligand; format: tissue-based
[3] = molecular target: Monoamine transporters; serotonin & dopamine (Rattus norvegicus) (UniProt P31652+P23977); experiment: Selectivity for serotonin transporter compared to dopamine transporter.; format: protein assay
[4] = molecular target: Sodium-dependent serotonin transporter (Rattus norvegicus, UniProt P31652); experiment: In vitro binding affinity at serotonin transporter in rat striatum by [3H]- citalopram displacement.; format: tissue-based
[5] = molecular target: Sodium-dependent dopamine transporter (Rattus norvegicus, UniProt P23977); experiment: In vitro binding affinity at dopamine transporter in rat striatum by [3H]WIN-35428 displacement.; format: tissue-based
Chain of Sodium-dependent dopamine transporter (P23977 whole entry): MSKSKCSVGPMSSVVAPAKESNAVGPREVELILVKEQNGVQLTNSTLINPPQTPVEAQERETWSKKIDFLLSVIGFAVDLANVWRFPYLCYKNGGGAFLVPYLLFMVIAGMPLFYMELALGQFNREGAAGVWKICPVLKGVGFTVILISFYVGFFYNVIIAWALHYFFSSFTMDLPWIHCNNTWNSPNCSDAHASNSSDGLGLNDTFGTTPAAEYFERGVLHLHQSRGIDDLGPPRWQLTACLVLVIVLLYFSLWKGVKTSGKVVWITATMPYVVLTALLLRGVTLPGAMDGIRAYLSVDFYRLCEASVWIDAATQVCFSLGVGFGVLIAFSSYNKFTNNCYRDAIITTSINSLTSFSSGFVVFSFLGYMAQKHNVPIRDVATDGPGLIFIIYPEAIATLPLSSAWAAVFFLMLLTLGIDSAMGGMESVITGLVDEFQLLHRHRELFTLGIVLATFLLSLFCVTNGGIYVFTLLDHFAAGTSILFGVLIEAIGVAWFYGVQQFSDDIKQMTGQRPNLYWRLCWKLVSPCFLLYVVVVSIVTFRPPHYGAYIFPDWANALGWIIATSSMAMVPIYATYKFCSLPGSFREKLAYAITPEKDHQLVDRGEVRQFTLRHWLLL

Chain of Sodium-dependent serotonin transporter (P31652 whole entry): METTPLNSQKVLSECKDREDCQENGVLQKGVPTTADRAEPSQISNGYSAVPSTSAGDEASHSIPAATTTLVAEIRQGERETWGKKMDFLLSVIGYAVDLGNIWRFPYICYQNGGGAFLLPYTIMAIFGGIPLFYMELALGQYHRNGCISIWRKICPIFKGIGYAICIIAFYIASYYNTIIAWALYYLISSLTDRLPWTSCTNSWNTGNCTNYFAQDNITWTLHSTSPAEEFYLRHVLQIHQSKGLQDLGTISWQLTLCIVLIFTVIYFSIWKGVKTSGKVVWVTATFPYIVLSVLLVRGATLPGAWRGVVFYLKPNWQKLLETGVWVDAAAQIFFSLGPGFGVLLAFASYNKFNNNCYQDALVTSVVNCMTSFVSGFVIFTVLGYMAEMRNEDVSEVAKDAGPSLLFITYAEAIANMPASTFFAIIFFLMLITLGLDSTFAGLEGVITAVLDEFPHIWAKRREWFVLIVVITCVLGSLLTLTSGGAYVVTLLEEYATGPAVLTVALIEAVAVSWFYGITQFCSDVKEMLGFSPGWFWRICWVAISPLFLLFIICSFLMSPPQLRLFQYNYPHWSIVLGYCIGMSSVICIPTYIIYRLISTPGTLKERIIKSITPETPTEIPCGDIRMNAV
Chain of Sodium-dependent dopamine transporter (Rattus norvegicus) (P23977 whole entry, looked up): as the sequence (P23977 whole entry) above
Chain of Monoamine transporters; serotonin & dopamine (Rattus norvegicus) (P23977 whole entry, looked up): as the sequence (P23977 whole entry) above
Chain of Monoamine transporters; serotonin & dopamine (Rattus norvegicus) (P31652 whole entry, looked up): as the sequence (P31652 whole entry) above
Chain of Norepinephrine transporter (Q9WTR4 whole entry): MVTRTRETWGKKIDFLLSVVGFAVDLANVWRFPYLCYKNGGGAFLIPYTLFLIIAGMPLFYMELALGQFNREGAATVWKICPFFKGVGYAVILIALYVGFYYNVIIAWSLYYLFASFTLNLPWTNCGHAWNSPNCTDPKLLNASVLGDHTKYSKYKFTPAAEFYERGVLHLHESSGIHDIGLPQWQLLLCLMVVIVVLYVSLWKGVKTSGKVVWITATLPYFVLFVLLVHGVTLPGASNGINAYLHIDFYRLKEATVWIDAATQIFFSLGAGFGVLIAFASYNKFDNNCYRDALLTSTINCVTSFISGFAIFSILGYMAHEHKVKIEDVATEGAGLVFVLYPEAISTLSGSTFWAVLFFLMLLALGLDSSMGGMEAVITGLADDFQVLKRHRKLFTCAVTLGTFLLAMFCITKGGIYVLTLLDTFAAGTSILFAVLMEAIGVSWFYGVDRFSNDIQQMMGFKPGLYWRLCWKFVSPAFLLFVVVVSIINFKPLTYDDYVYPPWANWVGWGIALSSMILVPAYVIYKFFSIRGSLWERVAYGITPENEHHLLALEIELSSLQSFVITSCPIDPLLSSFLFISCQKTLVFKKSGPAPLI

Compound | IC50 (Rattus norvegicus) | Ratio [1] | IC50 [2] | Ratio [3] | IC50 [4] | IC50 [5]
Fc1ccc(CN2CCC(CCNC(c3ccccc3)c3ccccc3)CC2)cc1 | 12 nM | 1.33 | 945 nM | 62 |  | 
O=C(Cc1ccccc1)N1CCC(CCOC(c2ccccc2)c2ccccc2)CC1 |  |  |  | 6.1 | 13200 nM | 
Fc1ccc(CN2CCC(CNCC(c3ccccc3)c3ccccc3)CC2)cc1 | 49.6 nM | 2.5 | 1100 nM | 7 |  | 
Fc1ccc(CN2CCC(CNOC(c3ccccc3)c3ccccc3)CC2)cc1 | 16.6 nM | 0.48 | 691 nM | 19 |  | 
Fc1ccc(CN2CCC(CCOC(c3ccccc3)c3ccccc3)CC2)cc1 | 2.48 nM |  |  | 113 |  | 
c1ccc(CN2CCC(CCNC(c3ccccc3)c3ccccc3)CC2)cc1 | 20.6 nM |  | 2620 nM |  |  | 
CN(CC1CCN(Cc2ccc(F)cc2)CC1)CC(c1ccccc1)c1ccccc1 |  |  |  | 27 |  | 
CN(CCC1CCN(Cc2ccc(F)cc2)CC1)C(c1ccccc1)c1ccccc1 |  |  |  | 7.8 | 1660 nM | 213 nM
N#Cc1ccc(CN2CCC(CCOC(c3ccccc3)c3ccccc3)CC2)cc1 | 4.58 nM |  | 342 nM | 615 |  | 
FC(F)(F)c1ccc(CN2CCC(CCOC(c3ccccc3)c3ccccc3)CC2)cc1 |  |  |  | 71 |  | 
CS(=O)(=O)Nc1ccc(CN2CCC(CCOC(c3ccccc3)c3ccccc3)CC2)cc1 | 9.73 nM | 0.36 |  | 22 |  | 
Fc1ccc(C(NCC2CCN(CCc3ccccc3)CC2)c2ccc(F)cc2)cc1 |  |  |  | 17 |  | 
Fc1cccc(CN2CCC(CCOC(c3ccccc3)c3ccccc3)CC2)c1 |  |  |  | 49 |  | 
Fc1ccc(CN2CCC(CCOC(c3ccccc3)c3ccccc3)CC2)cc1F |  |  | 921 nM | 122 |  | 
Fc1ccc(CN2CCC(CCNC(c3ccccc3)c3ccccc3)CC2)cc1F | 10.7 nM |  | 1030 nM |  |  | 
CC(OCCC1CCN(Cc2ccc(F)cc2)CC1)c1ccccc1 (centres undefined) |  |  |  | 7.8 | 5860 nM | 751 nM
CC(NCCC1CCN(Cc2ccc(F)cc2)CC1)c1ccccc1 (centres undefined) |  |  |  | 3.2 |  | 
